According to patent publication US9365862B1, “Herbicide resistant sorghum mutants” (NUtech Ventures, priority 2011, dated 2016):

Assays:
Experiment in all cases: Greenhouse bioassay for resistance to ALS-inhibiting herbicides (dry matter, visual injury)
Type in all cases: in vivo, Shattercane (Sorghum bicolor subsp. X drummondii)
[1] = tested on: shattercane biotype P8-30 (Mutant C); conditions: for resistance of the biotype to the herbicide: biotype P8-30 (Mutant C), relative to the wild-type, dry matter and visual ratings; for growth reduction: biotype P8-30, growth in the three weeks after herbicide application
Method: (§1) The bioassay experiment was conducted in a greenhouse on the East Campus of the University of Nebraska-Lincoln, in Lincoln, Nebr. The experimental design was a randomized complete block. Shattercane seed was planted in 0.9 L square plastic pots in Miracle-Gro® Moisture Control® Potting Mix (The Scotts Company LLC, Marysville, Ohio). The photoperiod was 15/9 light/dark with supplemental light provided by sodium halide lamps. Greenhouse temperatures were maintained at 24±2 C (day) and 19±2 C (night). Shattercane was thinned to 1 plant per pot when it reached the 2 leaf stage. Herbicide treatments (Table 1 in Appendix I) were applied when the shattercane reached the V4 growth stage and was approximately 12 cm tall. Individual plants ranged from growth stage V3 to V5, and in height from 7 to 19 cm. At least one tiller had formed on most plants by the time of application. Herbicides were applied using an 8001 even flat fan nozzle at 207 kPa in a single-tip track sprayer located in the greenhouse facility. The application rate was 187 l/ha, and treatment solutions were prepared in distilled water. Visual injury ratings were made 7, 14 and 21 days after treatment on a scale of 0 to 100, where 0 represents no injury and 100 represents plant death. At 21 DAT, plants were harvested at the soil surface, dried for 48 h at 70 C, and weighed to determine dry matter. Dry matter data for each experimental unit was divided by the average dry matter of the untreated control plants of that biotype and multiplied by 100 to determine relative percent biomass to the untreated control. Dry matter data for each experimental unit was also divided by the average dry matter data of the glyphosate-treated plants of that biotype to determine growth in the three weeks after herbicide application. Data were subjected to ANOVA using Proc GLM of SAS 9.1 (SAS Institute Inc., Cary, N.C.). The Run by Herbicide by Population interaction was significant for each variable, so runs were analyzed separately. The Herbicide by Population interaction was also significant for each run and each variable, so data were analyzed by herbicide to describe differences among the populations. Treatment means were separated using Duncan's Multiple Range test.

[2] = tested on: shattercane biotype P2-205 (Mutant A); conditions: dry matter and visual ratings
Method: as §1

[3] = tested on: shattercane biotype P9-102 (Mutant B); conditions: dry matter and visual ratings
Method: as §1

[4] = tested on: wild type shattercane; conditions: wild type biotype, plants harvested 21 DAT
Method: as §1

[5] = tested on: shattercane biotype 5-4Farm (Mutant D); conditions: plants harvested 21 DAT
Method: as §1

SMILES	resistance of the biotype to the herbicide [1]	resistance of the biotype to the herbicide [2]	resistance of the biotype to the herbicide [3]	also measured
CC(C)C1(C)N=C(c2nc3ccccc3cc2C(=O)O)NC1=O (stereo not drawn) [Imazaquin]	resistance	–	–	–
CCc1cnc(C2=NC(C)(C(C)C)C(=O)N2)c(C(=O)O)c1 (stereo not drawn) [Imazethapyr]	resistance	–	–	–
COc1cc(OC)nc(Oc2cccc(Oc3nc(OC)cc(OC)n3)c2C(=O)O)n1 [bispyribac]	partial resistance	–	–	resistance of the biotype to the herbicide ([1]; listed as Bispyribac): resistance; growth reduction [1]: approximately 65%
COc1nc(C)nc(NC(=O)NS(=O)(=O)c2ccccc2Cl)n1 [chlorsulfuron]	resistance	resistant	resistance	resistance of the biotype to the herbicide ([2]; listed as Chlorsulfuron): resistance
COc1cc(OC)nc(NC(=O)NS(=O)(=O)c2cc(NC=O)ccc2C(=O)N(C)C)n1 [foramsulfuron]	resistance	partially resistant	resistant	resistance of the biotype to the herbicide ([2]; listed as Foramsulfuron): resistance; resistance of the biotype to the herbicide ([3]; listed as Foramsulfuron): resistance
COCc1cnc(C2=NC(C)(C(C)C)C(=O)N2)c(C(=O)O)c1 (stereo not drawn) [imazamox]	resistance	partially resistant	–	resistance of the biotype to the herbicide ([2]; listed as Imazamox): resistance
COc1cc(OC)nc(NC(=O)NS(=O)(=O)c2ncccc2C(=O)N(C)C)n1 [nicosulfuron]	resistance	–	resistant	–
COc1cnc(OC)n2nc(NS(=O)(=O)c3c(OCC(F)F)cccc3C(F)(F)F)nc12 [penoxsulam]	–	–	–	effect on dry matter [4]: did not reduce dry matter; effect on dry matter [5]: did not reduce dry matter
O=C(Nc1nc(OC(F)F)cc(OC(F)F)n1)NS(=O)(=O)c1ccccc1C(=O)O [primisulfuron]	resistance	partially resistant	partially resistant	resistance of the biotype to the herbicide ([2]; listed as Primisulfuron): resistance; resistance of the biotype to the herbicide ([3]; listed as Primisulfuron): resistance
CCCOc1nn(C(=O)[N-]S(=O)(=O)c2ccccc2C(=O)OC)c(=O)n1C.[Na+] [propoxycarbazone]	resistance	resistant	resistant	resistance of the biotype to the herbicide ([2]; listed as Propoxycarbazone): resistance; resistance of the biotype to the herbicide ([3]; listed as Propoxycarbazone): resistance
CCS(=O)(=O)c1cccnc1S(=O)(=O)NC(=O)Nc1nc(OC)cc(OC)n1 [rimsulfuron]	partial resistance	–	–	resistance of the biotype to the herbicide ([1]; listed as Rimsulfuron): resistance; growth reduction [1]: ~84%
COc1nn(C(=O)NS(=O)(=O)c2c(C(=O)O)csc2C)c(=O)n1C [thiencarbazone]	resistance	partially resistant	partially resistant	resistance of the biotype to the herbicide ([2]; listed as Thiencarbazone): resistance; resistance of the biotype to the herbicide ([3]; listed as Thiencarbazone): resistance
